According to patent US20260285850A1, “SUBSTITUTED OXAZOLIDINONES AND IMIDAZOLINONES AS HERBICIDES” (FMC CORPORATION, priority 2023, published 2026):

What was measured:
Assay type in all cases: in vivo
[1] = test system: barnyardgrass (Echinochloa crus-galli); assay: Test A preemergence soil spray, visual injury rating 0-100; details: 10 days
Procedure, shortened: (§1)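 Loam-sand pots got test material in surfactant-containing solvent, either as a directed soil spray before emergence or on plants at the one- to two-leaf stage. Visual injury (0-100) was read after ten greenhouse days.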

[2] = test system: blackgrass (Alopecurus myosuroides); assay: as above; details: 10 days
Procedure, shortened: as §1

corn (Zea mays) [3] = assay: as above; details: 10 days
Procedure, shortened: as §1

[4] = test system: green foxtail (Setaria viridis); assay: as above; details: 10 days
Procedure, shortened: as §1

kochia (Bassia scoparia) [5] = assay: as above; details: 10 days
Procedure, shortened: as §1

[6] = test system: oat, wild (wild oat, Avena fatua); assay: as above; details: 10 days
Procedure, shortened: as §1

[7] = test system: palmer (palmer amaranth, palmer pigweed, Amaranthus palmeri); assay: as above; details: 10 days
Procedure, shortened: as §1

[8] = test system: ragweed (common ragweed, Ambrosia artemisiifolia); assay: as above; details: 10 days
Procedure, shortened: as §1

[9] = test system: ryegrass, Italian (italian ryegrass, Lolium multiflorum); assay: as above; details: 10 days
Procedure, shortened: as §1

soybean (Glycine max) [10] = assay: as above; details: 10 days
Procedure, shortened: as §1

[11] = test system: wheat (Triticum aestivum); assay: as above; details: 10 days
Procedure, shortened: as §1

[12] = test system: barnyardgrass (Echinochloa crus-galli); assay: Test A postemergence application, visual injury rating 0-100
Procedure, shortened: as §1

[13] = test system: blackgrass (Alopecurus myosuroides); assay: as above
Procedure, shortened: as §1

corn (Zea mays) [14] = assay: as above
Procedure, shortened: as §1

[15] = test system: green foxtail (Setaria viridis); assay: as above
Procedure, shortened: as §1

[16] = test system: horseweed (Erigeron canadensis); assay: as above
Procedure, shortened: as §1

kochia (Bassia scoparia) [17] = assay: as above
Procedure, shortened: as §1

[18] = test system: oat, wild (wild oat, Avena fatua); assay: as above
Procedure, shortened: as §1

[19] = test system: palmer (palmer amaranth, palmer pigweed, Amaranthus palmeri); assay: as above
Procedure, shortened: as §1

[20] = test system: ragweed (common ragweed, Ambrosia artemisiifolia); assay: as above
Procedure, shortened: as §1

[21] = test system: ryegrass, Italian (italian ryegrass, Lolium multiflorum); assay: as above
Procedure, shortened: as §1

soybean (Glycine max) [22] = assay: as above
Procedure, shortened: as §1

[23] = test system: wheat (Triticum aestivum); assay: as above
Procedure, shortened: as §1

[24] = test system: barnyardgrass (Echinochloa crusgalli); assay: Test B flooded paddy test, visual plant response rating 0-100; details: 250 g ai/ha, Flood, applied to paddy water, evaluated after 13 days
Procedure, shortened: (§2)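 Visual evaluation after 13 days. Water-applied treatment, 3 cm flood depth held constant, plants at 2-leaf stage at treatment.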

[25] = test system: ducksalad (Heteranthera limosa); assay: as above; details: 250 g ai/ha, Flood, applied to paddy water, evaluated after 13 days
Procedure, shortened: as §2

rice (Oryza sativa) = assay: as above; details: 250 g ai/ha, Flood, applied to paddy water, evaluated after 13 days
Procedure, shortened: as §2

[26] = test system: sedge, umbrella (small-flower umbrella sedge, Cyperus difformis); assay: as above; details: 250 g ai/ha, Flood, applied to paddy water, evaluated after 13 days
Procedure, shortened: as §2

[27] = 62 g ai/ha, 0 = no effect, 100 = complete control
[28] = 62 g ai/ha, postemergence, 10 days, 0 = no effect, 100 = complete control
[29] = Postemergence, 16 g ai/ha, greenhouse 10 days, 0 no effect, 100 complete control

Compound: CC(C)OC(=O)C1=CCC(NC(=O)C2(C)CN(c3cc(Cl)cc(Cl)c3)C(=O)O2)C1 (centres unmarked) [Compound 106]
- Barnyardgrass plant response rating ([1]; 16 g ai/ha, 0 to 100 scale): 0
- Barnyardgrass plant response rating (0-100) [1, 27]: 0
- Blackgrass plant response rating ([2]; 16 g ai/ha, 0 to 100 scale): 0
- Blackgrass plant response rating (0-100) [2, 27]: 0
- Corn plant response rating (corn (Zea mays) [3]; 16 g ai/ha, 0 to 100 scale): 0
- Corn plant response rating (0-100) (corn (Zea mays) [3]; [27]): 0
- Foxtail, Green plant response rating ([4]; 16 g ai/ha, 0 to 100 scale): 0
- Foxtail, Green plant response rating (0-100) [4, 27]: 0
- Kochia plant response rating (kochia (Bassia scoparia) [5]; 16 g ai/ha, 0 to 100 scale): 0
- Kochia plant response rating (0-100) (kochia (Bassia scoparia) [5]; [27]): 0
- Oat, Wild plant response rating ([6]; 16 g ai/ha, 0 to 100 scale): 0
- Oat, Wild plant response rating (0-100) [6, 27]: 0
- Pigweed, Palmer plant response rating ([7]; 16 g ai/ha, 0 to 100 scale): 0
- Pigweed, Palmer plant response rating (0-100) [7, 27]: 0
- Ragweed plant response rating ([8]; 16 g ai/ha, 0 to 100 scale): 0
- Ragweed plant response rating (0-100) [8, 27]: 0
- Ryegrass, Italian plant response rating ([9]; 16 g ai/ha, 0 to 100 scale): 0
- Ryegrass, Italian plant response rating (0-100) [9, 27]: 0
- Soybean plant response rating (soybean (Glycine max) [10]; 16 g ai/ha, 0 to 100 scale): 0
- Soybean plant response rating (0-100) (soybean (Glycine max) [10]; [27]): 0
- Wheat plant response rating ([11]; 16 g ai/ha, 0 to 100 scale): 0
- Wheat plant response rating (0-100) [11, 27]: 0
- Barnyardgrass plant response rating (0-100) [12, 28]: 0
- Barnyardgrass plant response rating (0 to 100 scale) [12, 29]: 0
- Blackgrass plant response rating (0-100) [13, 28]: 0
- Blackgrass plant response rating (0 to 100 scale) [13, 29]: 0
- Corn plant response rating (0-100) (corn (Zea mays) [14]; [28]): 0
- Corn plant response rating (0 to 100 scale) (corn (Zea mays) [14]; [29]): 0
- Foxtail, Green plant response rating (0-100) [15, 28]: 0
- Foxtail, Green plant response rating (0 to 100 scale) [15, 29]: 0
- Horseweed plant response rating (0-100) [16, 28]: 0
- Horseweed plant response rating (0 to 100 scale) [16, 29]: 0
- Kochia plant response rating (0-100) (kochia (Bassia scoparia) [17]; [28]): 0
- Kochia plant response rating (0 to 100 scale) (kochia (Bassia scoparia) [17]; [29]): 0
- Oat, Wild plant response rating (0-100) [18, 28]: 0
- Oat, Wild plant response rating (0 to 100 scale) [18, 29]: 0
- Pigweed, Palmer plant response rating (0-100) [19, 28]: 0
- Pigweed, Palmer plant response rating (0 to 100 scale) [19, 29]: 0
- Ragweed plant response rating (0-100) [20, 28]: 0
- Ragweed plant response rating (0 to 100 scale) [20, 29]: 0
- Ryegrass, Italian plant response rating (0-100) [21, 28]: 0
- Ryegrass, Italian plant response rating (0 to 100 scale) [21, 29]: 0
- Soybean plant response rating (0-100) (soybean (Glycine max) [22]; [28]): 0
- Soybean plant response rating (0 to 100 scale) (soybean (Glycine max) [22]; [29]): 0
- Wheat plant response rating (0-100) [23, 28]: 0
- Wheat plant response rating (0 to 100 scale) [23, 29]: 0
- Plant response rating, Barnyardgrass (0 to 100 scale, 0 is no effect and 100 is complete control) [24]: 65
- Plant response rating, Ducksalad (0 to 100 scale, 0 is no effect and 100 is complete control) [25]: 85
- Plant response rating, Rice (0 to 100 scale, 0 is no effect and 100 is complete control) (rice (Oryza sativa)): 10
- Plant response rating, Sedge, Umbrella (0 to 100 scale, 0 is no effect and 100 is complete control) [26]: 98
